Data on four molecules can be found in patent US8200312B2, “Apparatus for monitoring a system pressure in space with time and method for assessing drug delivery and resistance to therapy and product” (Yeda Research and Development Co. Ltd., priority 2006, dated 2012).

Entries after “also recorded” stand apart in the source; their conditions may differ.

The conditions of data set [1]: as previously reported (44); cited from earlier work.
Data set [2] deals with ectopic human non-small-cell lung cancer and orthotopic MCF7 human breast tumors. To be noted: slow infusion for ~2 hours; cited from earlier work.
In a further data set the test system is tumors. To be noted: intra-tumoral injection; cited from earlier work.
The subject of another data set is fibrosarcoma mouse model. To be noted: cited from earlier work.
Another data set concerns H460 tumors. Kind of data set: Steady-state tissue GdDTPA concentration maps (T1 relaxation MRI) before and after collagenase. It counts as in vivo, female CD1-NU immunodeficient mice. As for the experimental part:
(§1) Collagenase catalyzes the degradation of collagen fibers. Changing the collagen microfibrillar network in tumors modulates the extracellular matrix and causes a decrease in IFP (10, 26). H460 tumors were monitored during infusion, in the dynamic period and at steady state 24 h before and ˜5 h after collagenase administration (0.4 mg/kg body w). […] Similarly, maps of transcapillary transfer due to pressure gradients, k^ΔP, and the profiles of this parameter across the tumor indicated a change, particularly in the tumor's central region, from a negative k^ΔP before collagenase to a null or positive k^ΔP after collagenase (FIG. 6).
(§2) Human NCI-H460 non small cell lung cancer (NSCLC) cells were cultivated and implanted into the flanks of female CD1-NU immunodeficient mice, as previously described (4). During the MRI experiments, mice were anaesthetized by inhalation of 1% isofluorane (Medeva Pharmaceuticals, Inc., Rochester, N.Y., USA) in an O2/N2O (3:7) mixture applied through a nose cone (4). Collagenase (Sigma-Aldrich, St Louis, Mo., USA) treatment was applied by i.v. injection of 0.4 mg/kg body w of this enzyme (1 mg=161 collagen digestion units).
(§3) Tissue contrast agent concentration at steady state infusion was determined from measurements of T1 relaxation rates before, and at 90 min after the start of the intravenous infusion of the contrast agent as previously described (4). For the dynamic measurements 3-dimensional T1. weighted gradient echo images were recorded using TErTR=2.1/18.3 ms and flip angle=45°, 47 s temporal resolution. After recording 5 pre-contrast images, slow infusion of GdDTPA (gadopentate-dimeglumine, Schering, Berlin, Germany) was initiated at a rate of 0.011 mmol/min/kg body wt. for a total time of 120 min.
Tissue GdDTPA concentration (CGd) at steady state was calculated at pixel resolution from the T1 measurements, as previously described (4).

Data set [3] relates to H460 human non-small-cell lung cancer tumors. The data set can be described thus: Dynamic contrast-enhanced MRI during slow GdDTPA infusion: vascular parameters before and after collagenase. It counts as in vivo, female CD1-NU immunodeficient mice. On the procedure:
as §1, §2
MRI scanning was performed on a 4.7-T Biospec spectrometer (Bruker Biospin, Rheinstetten, Germany) employing the same spatial resolution of 0.2×0.2×1 mm^3 in all protocols. Delineation of the boundary of the tumors and determination of their volume was achieved by analyzing images recorded with a 2-dimensional fast spin echo sequence using […] as previously described (40).
as §3
Analysis of the dynamic data collected during the slow infusion was performed at pixel resolution, on the basis of a model proposed by Jain et al (1, 35, 41-43). This model takes into account the transfer of solutes through the capillary walls and within the interstitial spaces by both diffusion in the direction of the concentration gradients and convection in the direction of the pressure gradients. Relying on few assumptions, which are described herein two differential equations were solved. The first equation applies to regions with low IFP were positive pressure gradients favors net transfer of contrast agent from the capillaries into the tissue (see equation 1) and the second one applies to intra tumoral regions with high IFP where a pressure gradients in the interstitium favors outward convection of the contrast agent and reduces the net delivery to these regions (see equation 2).
Where Ct is the contrast agent concentration in the entire tissue, Dinf is the contrast agent-infusion rate, k^trans the transcapillary transfer constant, k^ΔP the pressure gradients derived transfer rate which also depends on the shape, morphology, and the hydraulic conductivity of the tissue (1). νe represents the extracellular extravascular (EES) volume fraction, and νp the intravascular volume fraction. The parameters ai, and mi (i=1,2) represent the average plasma pharmacokinetic amplitude and time constant parameters, respectivelyt calculated to be a1=2.94 kg/l, a2=4.85 kg/l, m1=0.73 min^−1, and m2=0.075 min^−1 as previously reported (44).
A nonlinear “best fit” algorithm (40) was applied to fit the time courses to Equations 1 and 2, calculating the proportion of variability, R^2, per pixel for each fitting. […]

Data set [4] relates to human osteosarcoma xenografts. To be noted: collagenase (0.1%), cited from earlier work.
[5] abbreviates: H460 tumors, within hours after administration.
Setting [6] is: steady state infusion, ~5 h after collagenase 0.4 mg/kg.
Where [7] appears, read: inside H460 tumors (excluding the rim), 5 h after collagenase administration.

Turning to `O=C([O-])CN(CCN(CC(=O)[O-])CC(=O)O)CCN(CC(=O)[O-])CC(=O)O.[Gd+3]` [GdDTPA, gadolinium-diethylenetriaminepentaacetic acid], in data set [1], the “a1, average plasma pharmacokinetic amplitude” value was 2.94 kg/L; the “a2, average plasma pharmacokinetic amplitude” value was 4.85 kg/L; the “m1, plasma time constant parameter” value is 0.73 min⁻¹; the “m2, plasma time constant parameter” value is 0.075 min⁻¹. In data set [2], the “steady-state tissue GdDTPA concentration further inside the tumor” value is listed as “low or null values”, the “steady-state tissue GdDTPA concentration in the tumor periphery” value was roughly 0.5 mmol/L and the “steady-state tissue GdDTPA concentration outside the tumor boundaries” value is roughly 1 mmol/L.

Consider hyaluronidase, for which, in the data set with tumors, the “effect on IFP” value is listed as “reduce IFP” and the “effect on uptake of antibodies” value was “increase the uptake”.

Regarding `O=C1CCC(N2C(=O)c3ccccc3C2=O)C(=O)N1` (stereo not drawn) [thalidomide], the “plasma volume fraction and fractional efflux rate from the interstitial space to the plasma” value in the data set on fibrosarcoma mouse model (accompanying the decline in IFP) is on record as “increased”. The “effect on IFP” value with fibrosarcoma mouse model (fibrosarcoma mouse model) is given as “decline”.

Consider collagenase, for which the “steady state tissue GdDTPA concentration in the internal parts after collagenase treatment” value with H460 tumors (H460 tumors) was “significantly increased”. Moreover, in the data set on H460 tumors (setting [5]), the “effect on IFP” value is reported as “reduces IFP” and the “effect on uptake of a contrast agent” value was “increases the uptake”. In the data set with H460 tumors (setting [6]), the “outward convection after collagenase treatment” value was “vanished” and the “transfer of the contrast agent in the interior regions of the tumor after collagenase” value is listed as “markedly increased”. Also, in the data set on tumors, the “effect on IFP” value was “reduce IFP” and the “effect on uptake of antibodies” value is “increase the uptake”. The “all other vascular parameters derived from the analysis, change after collagenase” value in data set [3] (H460 tumors, ~5 h after collagenase 0.4 mg/kg) was “did not change significantly”. Besides, the “change of pressure dependent transfer constant in the tumors' central/internal regions after collagenase” value in data set [3] (H460 tumors, from negative to positive values) was “significant increase; also recorded: significant change”. In addition, the “k^ΔP in the internal parts of the tumors following collagenase treatment” value in data set [3] (increased from (−2.6±3.7)*10^−3, paired t-test, p=0.016) is 8.6±8.9 *10^−3. In data set [3] (setting [7]), the “K^trans*10^−3” value is listed as 3.7 ± 3.4 *10^−3, the “[…]e (extracellular extravascular volume fraction)” value was found to be 0.24 ± 0.06 and the “[…]p (intravascular volume fraction)” value is given as 0.053 ± 0.027. For the same molecule, in data set [3] (inside H460 tumors (excluding the rim), 5 h after collagenase administration, 0.4 mg/kg i.v., mean ± SD), the “K^□p*10^−3 (pressure dependent transfer constant)” value is recorded as 8.6 ± 8.9 *10^−3. The “effect on IFP” value in data set [4] (within hours) is listed as “reduced IFP”. The “increase in the tumor uptake and distribution of a monoclonal antibody” value in data set [4] is recorded as 2 fold.
